This passage reports inhibition results from ChEMBL document CHEMBL1127720, “Adamantane and Nipecotic Acid Derivatives as Novel -Turn Mimics” (Bioorg Med Chem Lett, 1994).

Each structure is given as a SMILES string.

In experiment [1] the target is T1, Integrin alpha-IIb/beta-3 (Homo sapiens) (UniProt P05106+P08514). Description: Percent inhibition of platelet aggregation at 50 uM. Type of experiment: functional.
For experiment [2], the target named is T1, Integrin alpha-IIb/beta-3 (Homo sapiens). As to the kind of experiment: Inhibition of Fibrinogen Receptor at 50 uM. In kind it is protein-complex assay.
The target is the same in experiment [3]. Description: Percent inhibition of platelet aggregation at 20 uM. Type of experiment: functional.

Regarding `CC(=O)N[C@@H](CCCCN)C(=O)N1CCCC(C(=O)NCCC(=O)O)C1` (some centres undefined), the inhibition in experiment [1] worked out at 86%.

Molecule `CC(=O)N[C@@H](CCCCN)C(=O)N1CCCC(C(=O)NCC(=O)O)C1` (some centres undefined) yielded an inhibition in experiment [2] of 24%.

As to `CC(C)(C)OC(=O)NC(CCCCN)C(=O)NC12CC3CC(CC(NCC(=O)O)(C3)C1)C2` (centres undefined), the results for the inhibition in experiment [2] and in experiment [3] were 44% and 40%, respectively.

What is called inhibition is the drop in the measured response relative to a control, in per cent. Low readings indicate little suppression, high ones strong suppression.
